# Source: patent publication US20230119479A1, “A HISTONE DEACETYLASE INHIBITOR HAVING A NITROGEN-CONTAINING AROMATIC HETEROCYCLYL GROUP” (SHIONOGI & CO., LTD., priority 2019, published 2023)
# Biological target: T1, HDAC2 Human recombinant C-terminal FLAG-tag (Homo sapiens, UniProt Q92769)
# T1 construct: FLAG (C); purchased BPS Bioscience 50052
# Experiment: Measurement of HDAC2 enzyme inhibitory activity (HTRF)
# Type: biochemical
# Conditions: recombinant HDAC2, H3K9ac peptide, 3 hours room temperature; read-out: HDAC2 IC50
# Procedure: Test Example 1: Measurement of HDAC2 Enzyme Inhibitory Activity
# The HDAC2 enzyme inhibitory activity was measured by the method described in the following test example.
# To each well of a 384-well plate (Corning, 4514), DMSO solution of the test compound was dispensed at 50 nL/well from a final concentration of 99 μM to 8 points (n=2) in the 3-fold dilution series using Echo555 (Beckman Coulter). 2.5 μl of 0.005 mg/mL recombinant enzyme HDAC2 (HDAC2 Human recombinant C-terminal FLAG-tag, BPS Bioscience, 50052) was added to each well, 2.5 μl of 0.6 μM H3K9ac peptide (Lys(Ac)9-Histone H3 (1-21)-GGK(Biotin), AnaSpec, 64361) was added, mixed, and reacted in a wet box at room temperature for 3 hours. 50 mM Tris HCL pH8.0, 137 mM sodium chloride, 2.7 mM potassium chloride, 1 mM magnesium chloride, 0.01% Tween20, and 0.1% BSA which were diluted with ultrapure water were used as a reaction buffer at this time. After the reaction, 5 μL of 10 μM SAHA (suberoylanilide hydroxamic acid) as a reaction terminator and the 5 μL of a mixture of 2.5 ng of H3K9me0 antibody (ActiveMotif, 61399) labeled in-house with europium cryptate (Cisbio, 65EUSABA) and 125 nM streptavidin-XL665 (Cisbio, 610SAXLA) as an HTRF (time-resolved fluorescence) reagent were added to each well, mixed, and allowed to stand in a wet box at room temperature for reaction. A detection buffer used at this time was 50 mM Tris HCL pH 8.0, 0.8 M potassium fluoride, and 0.1% BSA which were diluted with ultrapure water. After reacting for 2 hours or more, HTRF was measured using a multi-plate reader such as SpectraMax Paradigm (MOLECULAR DEVICE) or RUBYstar (BMG LABTECH). Ratio (665 nm/615-620 nm×10000) was calculated from the fluorescence values of two wavelengths, 615-620 nm and 665 nm, which were excited at 320-340 nm, and the energy transition was obtained.
# T1 sequence (Q92769 whole entry): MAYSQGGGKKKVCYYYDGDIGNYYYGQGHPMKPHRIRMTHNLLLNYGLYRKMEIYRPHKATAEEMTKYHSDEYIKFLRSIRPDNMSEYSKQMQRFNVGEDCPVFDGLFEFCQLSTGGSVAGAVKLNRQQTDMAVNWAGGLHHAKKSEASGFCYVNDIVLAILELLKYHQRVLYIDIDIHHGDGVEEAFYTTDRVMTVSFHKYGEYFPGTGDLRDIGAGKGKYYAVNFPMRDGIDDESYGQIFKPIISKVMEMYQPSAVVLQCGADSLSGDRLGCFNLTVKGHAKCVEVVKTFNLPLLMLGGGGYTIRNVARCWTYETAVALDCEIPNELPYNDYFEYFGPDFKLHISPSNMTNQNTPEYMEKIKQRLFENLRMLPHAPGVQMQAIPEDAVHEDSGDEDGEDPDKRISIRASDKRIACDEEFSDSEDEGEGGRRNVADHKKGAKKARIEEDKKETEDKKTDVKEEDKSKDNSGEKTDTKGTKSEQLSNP
row,SMILES,IC50
1,Cn1cc(-c2cnc(C(=O)Nc3cc(-c4cncs4)ccc3N)cn2)cn1 [Compound I-010],0.031 µM
2,COCc1cnc(C(=O)Nc2cc(-c3ccc(F)nc3)ccc2N)cn1 [Compound I-218],0.15 µM
3,Cn1cc(-c2ccc(C(=O)Nc3cc(-c4ccc(F)nc4)ccc3N)nc2)nn1 [Compound I-040],0.063 µM
4,CN(C)c1cnc(C(=O)Nc2cc(-c3ccc(F)nc3)ccc2N)cn1 [Compound I-178],0.046 µM
5,COCCOc1cnc(C(=O)Nc2nc(-n3cccc3)ccc2N)cn1 [Compound I-232],0.32 µM
6,CN(C)c1ccc(C(=O)Nc2cc(-c3cnn(C)c3)ccc2N)nn1 [Compound I-274],0.24 µM
7,Nc1ccc(-c2ccc(F)nc2)cc1NC(=O)c1cnc(Cl)cn1 [Compound I-239],0.23 µM
8,Nc1ccc(-c2ccc(F)nc2)cc1NC(=O)c1cnc(NC2CCOCC2)cn1 [Compound I-286],0.07 µM
9,Cn1cc(-c2ccc(C(=O)Nc3nc(-n4cccc4)ccc3N)nc2)cn1 [Compound I-025],0.37 µM
10,CC(C)(C)c1ccc(C(=O)Nc2cc(-c3ccc(F)nc3)ccc2N)nc1 [Compound I-191],0.24 µM
11,COC1CN(c2cnc(C(=O)Nc3cc(-c4ccc(F)nc4)ccc3N)cn2)C1 [Compound I-283],0.05 µM
12,Cn1cc(-c2ccc(C(=O)Nc3cc(-c4ccco4)ccc3N)nc2)nn1 [Compound I-002],0.054 µM
13,Nc1ccc(-c2cncs2)cc1NC(=O)c1ccc(C2CC2)cn1 [Compound I-101],0.092 µM
14,Nc1ccc(-n2ccc(F)c2)cc1NC(=O)c1cnc(N2CCC2)cn1 [Compound I-300],0.07 µM
15,Nc1ccc(-c2ccc(F)nc2)cc1NC(=O)c1ccc(N2CCCC2)nn1 [Compound I-271],0.09 µM
16,COCCOc1cnc(C(=O)Nc2nc(-c3ccccc3)ccc2N)cn1 [Compound I-231],0.85 µM
17,Nc1ccc(-c2ccc(F)nc2)cc1NC(=O)c1cnc(N2CC(CO)(CCl)C2)cn1 [Compound I-222],0.08 µM
18,CN(C)c1cnc(C(=O)Nc2nc(-c3ccccc3)ccc2N)cn1 [Compound I-213],0.31 µM
19,Nc1ccc(-c2ccc(F)nc2)cc1NC(=O)c1ccc(F)cn1 [Compound I-089],0.4 µM
20,Nc1ccc(-c2ccc(F)nc2)cc1NC(=O)c1ccc(C2CC2)cn1 [Compound I-111],0.15 µM
21,Cn1cc(-c2ccc(N)c(NC(=O)c3cc4c(cn3)OCCC4)c2)cn1 [Compound I-255],0.41 µM
22,CN(C)c1cnc(C(=O)Nc2cc(-c3cncs3)ccc2N)cn1 [Compound I-205],0.06 µM
23,Cn1cc(-c2ccc(N)c(NC(=O)c3cnc(OC(F)F)cn3)c2)cn1 [Compound I-146],0.38 µM
24,CC(C)Oc1ccc(C(=O)Nc2cc(-c3ccc(F)nc3)ccc2N)nc1 [Compound I-162],0.2 µM

row,SMILES,IC50
1,Cn1cc(-c2ccc(C(=O)Nc3cc(-c4cccs4)ccc3N)nc2)nn1 [Compound I-001],0.056 µM
2,COCc1cnc(C(=O)Nc2cc(-c3cnn(C)c3)ccc2N)cn1 [Compound I-219],0.31 µM
3,Cn1cc(-c2ccc(N)c(NC(=O)c3cnc(CF)cn3)c2)cn1 [Compound I-147],0.29 µM
4,Nc1ccc(-c2ccc(F)nc2)cc1NC(=O)c1cc(F)ccn1 [Compound I-186],0.49 µM
5,CC(=O)Nc1ccc(C(=O)Nc2cc(-c3cnn(C)c3)ccc2N)nc1 [Compound I-265],0.09 µM
6,Nc1ccc(-c2cncs2)cc1NC(=O)c1cc2c(cn1)OC(F)(F)CO2 [Compound I-070],0.24 µM
7,Cn1cc(-c2ccc(N)c(NC(=O)c3cc4c(cn3)OCCO4)c2)cn1 [Compound I-098],0.24 µM
8,Nc1ccc(-c2ccc(F)nc2)cc1NC(=O)c1cnc(N2CCC2(CO)CCl)cn1 (stereo not shown) [Compound I-225],0.09 µM
9,CC(C)Nc1cnc(C(=O)Nc2cc(-c3ccc(F)nc3)ccc2N)cn1 [Compound I-242],0.04 µM
10,CCNc1cnc(C(=O)Nc2cc(-c3ccc(F)nc3)ccc2N)cn1 [Compound I-285],0.04 µM
11,Nc1ccc(-n2ccc(F)c2)cc1NC(=O)c1cnc(N2CCCOCC2)cn1 [Compound I-298],0.13 µM
12,COCCOc1cnc(C(=O)Nc2cc(-c3ccc(F)nc3)ccc2N)cn1 [Compound I-229],0.13 µM
13,CN(C)c1ccc(C(=O)Nc2cc(-c3ccc(F)nc3)ccc2N)nn1 [Compound I-263],0.12 µM
14,Cn1cc(-c2ccc(N)c(NC(=O)c3cnc(N4CCCC4)cn3)c2)cn1 [Compound I-241],0.14 µM
15,Nc1ccc(-c2cncs2)cc1NC(=O)c1cnc2[nH]ccc2n1 [Compound I-064],0.096 µM
16,Cn1cc(-c2ccc(N)c(NC(=O)c3cnc(NCC(F)(F)F)cn3)c2)cn1 [Compound I-292],0.17 µM
17,Nc1ccc(-c2ccc(F)nc2)cc1NC(=O)c1ccc(C2CCC2)cn1 [Compound I-243],0.26 µM
18,Cn1cc(-c2ccc(C(=O)Nc3cc(-c4cccs4)ccc3N)nn2)cn1 [Compound I-027],0.13 µM
19,Nc1ccc(-c2ccc(F)nc2)cc1NC(=O)c1cnc(N2CCC23COC3)cn1 [Compound I-236],0.07 µM
20,Cc1ncc(-c2ccc(N)c(NC(=O)c3ccc(-c4cnn(C)c4)cn3)c2)s1 [Compound I-032],0.14 µM
21,CCN(C)c1cnc(C(=O)Nc2cc(-c3ccc(F)nc3)ccc2N)cn1 [Compound I-220],0.05 µM
22,Cc1ccc(C(=O)Nc2cc(-c3cnn(C)c3)ccc2N)nc1 [Compound I-155],0.22 µM
23,CC(C)Oc1ccc(C(=O)Nc2cc(-c3cnn(C)c3)ccc2N)nc1 [Compound I-163],0.21 µM
24,CN(C)c1ccc(C(=O)Nc2cc(-c3ccc(F)nc3)ccc2N)nc1 [Compound I-176],0.079 µM

row,SMILES,IC50
1,Nc1ccc(-c2ccc(F)nc2)cc1NC(=O)c1ccc(OCC(F)(F)F)cn1 [Compound I-135],0.47 µM
2,CN(C)c1cnc(C(=O)Nc2nc(-n3cccc3)ccc2N)cn1 [Compound I-212],0.83 µM
3,C=Cc1ccc(C(=O)Nc2cc(-c3ccc(F)nc3)ccc2N)nc1 [Compound I-131],0.18 µM
4,Nc1ccc(-c2ccc(F)nc2)cc1NC(=O)c1cnc(N2CC3(COC3)C2)cn1 [Compound I-245],0.07 µM
5,Nc1ccc(-c2ccc(F)nc2)cc1NC(=O)c1cnc(N2Cc3cccnc3C2)cn1 [Compound I-279],0.05 µM
6,Cn1cc(-c2cnc(C(=O)Nc3nc(-c4ccco4)ccc3N)cn2)cn1 [Compound I-026],0.32 µM
7,Cn1cc(-c2ccc(N)c(NC(=O)c3cnc(N4CCC4)cn3)c2)cn1 [Compound I-238],0.15 µM
8,Nc1ccc(-c2cncs2)cc1NC(=O)c1cnc(OCF)cn1 [Compound I-100],0.1 µM
9,Nc1ccc(-c2ccc(F)nc2)cc1NC(=O)c1cnc(N2CCC2)cn1 [Compound I-221],0.05 µM
10,Cc1cnc(C(=O)Nc2cc(-c3ccc(F)nc3)ccc2N)c(F)c1 [Compound I-209],0.15 µM
11,Cn1cc(-c2cnc(C(=O)Nc3cc(-c4cccs4)ccc3N)c(F)c2)cn1 [Compound I-016],0.16 µM
12,Nc1ccc(-c2cncs2)cc1NC(=O)c1cc2ccccc2cn1 [Compound I-066],0.11 µM
13,COc1cnc(C(=O)Nc2cc(-c3ccc(F)nc3)ccc2N)nc1 [Compound I-259],0.34 µM
14,Cn1cc(-c2ccc(C(=O)Nc3cc(-c4cncs4)ccc3N)nc2)nn1 [Compound I-046],0.054 µM
15,Nc1ccc(-c2ccc(F)nc2)cc1NC(=O)c1cnc(OC2CCOCC2)cn1 [Compound I-287],0.17 µM
16,Cn1cc(-c2ccc(N)c(NC(=O)c3cnc(N4Cc5cccnc5C4)cn3)c2)cn1 [Compound I-297],0.1 µM
17,Nc1ccc(-c2ccc(F)nc2)cc1NC(=O)c1cnc2[nH]ccc2n1 [Compound I-086],0.18 µM
18,Cn1cc(-c2cnc(C(=O)Nc3nc(-c4ccc(F)nc4)ccc3N)cn2)cn1 [Compound I-079],0.48 µM
19,Cn1cc(-c2ccc(C(=O)Nc3cc(-c4cnco4)ccc3N)nc2)nn1 [Compound I-011],0.057 µM
20,Nc1ccc(-c2ccc(F)nc2)cc1NC(=O)c1cc2ccncc2cn1 [Compound I-068],0.14 µM
21,Cn1cc(-c2cnc(C(=O)Nc3cc(-c4ccco4)ccc3N)cn2)cn1 [Compound I-008],0.12 µM
22,Nc1ccc(-c2ccc(F)nc2)cc1NC(=O)c1ccc(Cl)cn1 [Compound I-090],0.29 µM

# Same assay, conditions: recombinant HDAC2, H3K9ac peptide; read-out: IC50 (HDAC2)
row,SMILES,IC50
1,CC(=O)Nc1ccc(C(=O)Nc2nc(-n3cccc3)ccc2N)nc1 [Compound I-305],0.13 µM
2,Nc1ccc(-c2cccnc2)cc1NC(=O)c1cnc(N2CCOCC2)cn1 [Compound I-312],0.045 µM
3,CCC(=O)Nc1ccc(C(=O)Nc2cc(-c3cnn(C)c3)ccc2N)nc1 [Compound I-307],0.077 µM
